#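 Where inhibition never reached the appropriate level, the endpoint shown equals the highest concentration tested. Otherwise, values were interpolated linearly from a five-concentration, 48-hour dose response in 96-well plates. Here, GI50 denotes the concentration required for 50% inhibition of growth.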 The source made the active and inactive calls. Rule as the data show it: active = GI50 up to about 1.1 µM and inactive = higher.
# Columns and labels:
# Experiment in all cases: growth of human tumour cells (NCI), 48 h
# Malme-3M = test system: Malme-3M
# HCT-15 = test system: HCT-15
# NCI-H23 = test system: NCI-H23
# LOX IMVI = test system: LOX IMVI
# RPMI-8226 = test system: RPMI-8226
# HOP-92 = test system: HOP-92
# CCRF-CEM = test system: CCRF-CEM
# HT-29 = test system: HT-29
# CAKI-1 = test system: CAKI-1
# SW-620 = test system: SW-620
# T47D = test system: T47D
# MDA-MB-435 = test system: MDA-MB-435
# IGROV-1 = test system: IGROV-1
# SK-MEL-2 = test system: SK-MEL-2
# SF-295 = test system: SF-295
# SK-OV-3 = test system: SK-OV-3
# SNB-19 = test system: SNB-19
# SNB-75 = test system: SNB-75
# COLO 205 = test system: COLO 205
# MOLT-4 = test system: MOLT-4
# MCF7 = test system: MCF7
# UO-31 = test system: UO-31
# OVCAR-5 = test system: OVCAR-5
# U-251 = test system: U-251
# ACHN = test system: ACHN
# SK-MEL-5 = test system: SK-MEL-5
# M14 = test system: M14
# MDA-MB-231 = test system: MDA-MB-231
# OVCAR-3 = test system: OVCAR-3
# MDA-N = test system: MDA-N
# TK-10 = test system: TK-10
# HCT-116 = test system: HCT-116
# DU-145 = test system: DU-145
# BT-549 = test system: BT-549
# OVCAR-8 = test system: OVCAR-8
# Hs-578T = test system: Hs-578T
# KM12 = test system: KM12
# NCI-H460 = test system: NCI-H460
# SN12C = test system: SN12C
# RXF 393 = test system: RXF 393
# PC-3 = test system: PC-3
# UACC-257 = test system: UACC-257
# K562 = test system: K562
# HL-60 = test system: HL-60
# EKVX = test system: EKVX
# SK-MEL-28 = test system: SK-MEL-28
# A498 = test system: A498
# SF-268 = test system: SF-268
# UACC-62 = test system: UACC-62
# HOP-62 = test system: HOP-62
# NCI/ADR-RES = test system: NCI/ADR-RES
# A549 = test system: A549
# SF-539 = test system: SF-539
# 786-0 = test system: 786-0
# SR = test system: SR
# NCI-H522 = test system: NCI-H522
# OVCAR-4 = test system: OVCAR-4
smiles,measurement,setting,value
CSc1ncnc2c1ncn2C1OC(CO)C(O)OC1O (configuration not stated),GI50,Malme-3M,14000 nM (inactive)
same,GI50,HCT-15,506 nM
same,GI50,NCI-H23,721 nM (active)
same,GI50,LOX IMVI,361 nM (active)
same,GI50,RPMI-8226,1060 nM (active)
same,GI50,HOP-92,822 nM (active)
same,GI50,CCRF-CEM,57.9 nM (active)
same,GI50,HT-29,449 nM (active)
same,GI50,CAKI-1,2580 nM (inactive)
same,GI50,SW-620,1510 nM (inactive)
same,GI50,T47D,612 nM (active)
same,GI50,MDA-MB-435,1700 nM (inactive)
same,GI50,IGROV-1,897 nM (active)
same,GI50,SK-MEL-2,2760 nM (inactive)
same,GI50,SF-295,13600 nM (inactive)
same,GI50,SK-OV-3,20000 nM (inactive)
same,GI50,SNB-19,10700 nM (inactive)
same,GI50,SNB-75,10900 nM (inactive)
same,GI50,COLO 205,1800 nM (inactive)
same,GI50,MOLT-4,281 nM (active)
same,GI50,MCF7,262 nM (active)
same,GI50,UO-31,1790 nM (inactive)
same,GI50,OVCAR-5,2010 nM (inactive)
same,GI50,U-251,9350 nM (inactive)
same,GI50,ACHN,643 nM (active)
same,GI50,SK-MEL-5,3730 nM (inactive)
same,GI50,M14,1140 nM (inactive)
same,GI50,MDA-MB-231,396 nM (active)
same,GI50,OVCAR-3,348 nM (active)
same,GI50,MDA-N,2240 nM (inactive)
same,GI50,TK-10,219 nM (active)
same,GI50,HCT-116,400 nM (active)
same,GI50,DU-145,697 nM (active)
same,GI50,BT-549,1830 nM (inactive)
same,GI50,OVCAR-8,2120 nM (inactive)
same,GI50,Hs-578T,20900 nM (inactive)
same,GI50,KM12,789 nM (active)
same,GI50,NCI-H460,424 nM (active)
same,GI50,SN12C,1060 nM (active)
same,GI50,RXF 393,11700 nM (inactive)
same,GI50,PC-3,2260 nM (inactive)
same,GI50,UACC-257,902 nM (active)
same,GI50,K562,1160 nM (inactive)
same,GI50,HL-60,1970 nM (inactive)
same,GI50,EKVX,624 nM (active)
same,GI50,SK-MEL-28,13700 nM (inactive)
same,GI50,A498,1110 nM (active)
same,GI50,SF-268,7690 nM (inactive)
same,GI50,UACC-62,2960 nM (inactive)
same,GI50,HOP-62,3700 nM (inactive)
same,GI50,NCI/ADR-RES,2560 nM (inactive)
same,GI50,A549,662 nM (active)
same,GI50,SF-539,1730 nM (inactive)
same,GI50,786-0,785 nM (active)
same,GI50,SR,619 nM (active)
same,GI50,NCI-H522,3340 nM (inactive)
same,GI50,OVCAR-4,10700 nM (inactive)

# From ChEMBL document CHEMBL1201862, “PubChem BioAssay data set” (2004)
